Data as given in patent publication US6794494B1, “Cancerous disease modifying antibodies” (Arius Research, Inc., priority 2003, dated 2004).

Experiments:
[1] = tested on: HT-29 cells; settings: human
[2] = tested on: SW620 cells; settings: human
[3] = tested on: DLD-1 cells; settings: 5 days; four experiments in triplicate; concentration (10A304.7, Anti-Fas, 107.3, MPC-11 20 μg/mL; c225 5 μg/mL; Cycloheximide 100 μM)
[4] = tested on: Lovo cells; settings: 5 days; four experiments in triplicate; concentration (10A304.7, Anti-Fas, 107.3, MPC-11 20 μg/mL; c225 5 μg/mL; Cycloheximide 100 μM)
[5] = tested on: SW1116 cells; settings: 5 days; four experiments in triplicate; concentration (10A304.7, Anti-Fas, 107.3, MPC-11 20 μg/mL; c225 5 μg/mL; Cycloheximide 100 μM)
[6] = tested on: BxPC-3 cells; settings: 5 days; four experiments in triplicate; concentration (10A304.7, Anti-Fas, 107.3, MPC-11 20 μg/mL; c225 5 μg/mL; Cycloheximide 100 μM)
[7] = tested on: MB-231 cells; settings: 5 days; four experiments in triplicate; concentration (10A304.7, Anti-Fas, 107.3, MPC-11 20 μg/mL; c225 5 μg/mL; Cycloheximide 100 μM)
[8] = tested on: MCF-7 cells; settings: 5 days; four experiments in triplicate; concentration (10A304.7, Anti-Fas, 107.3, MPC-11 20 μg/mL; c225 5 μg/mL; Cycloheximide 100 μM)
[9] = tested on: PC-3 cells; settings: 5 days; four experiments in triplicate; concentration (10A304.7, Anti-Fas, 107.3, MPC-11 20 μg/mL; c225 5 μg/mL; Cycloheximide 100 μM)
[10] = tested on: OVCAR cells; settings: 5 days; four experiments in triplicate; concentration (10A304.7, Anti-Fas, 107.3, MPC-11 20 μg/mL; c225 5 μg/mL; Cycloheximide 100 μM)
[11] = tested on: HT-29 cells; test: Live/Dead cytotoxicity assay, purified antibody; settings: 5 days; four experiments in triplicate; concentration (10A304.7, Anti-Fas, 107.3, MPC-11 20 μg/mL; c225 5 μg/mL; Cycloheximide 100 μM)
[12] = tested on: SW620 cells; test: Live/Dead cytotoxicity assay, purified antibody; settings: 5 days; four experiments in triplicate; concentration (10A304.7, Anti-Fas, 107.3, MPC-11 20 μg/mL; c225 5 μg/mL; Cycloheximide 100 μM)
[13] = tested on: SW1116 cells; test: Live/Dead cytotoxicity assay, hybridoma supernatant; settings: hybridoma supernatant or controls, 5 days
[14] = tested on: colorectal cancer; settings: cited from earlier work

Molecule: C[C@@H]1C[C@@H]([C@H](O)CC2CC(=O)NC(=O)C2)C(=O)[C@@H](C)C1 [Cycloheximide]
- Cytotoxicity (%) HT-29 Average [1]: 23%
- Cytotoxicity (%) SW620 Average [2]: −2%
- Cytotoxicity above background, Colon DLD-1 [3]: ++++ (4/4 experiments with 15% cytotoxicity above background (++++))
- Cytotoxicity above background, Colon Lovo [4]: ++++ (4/4 experiments with 15% cytotoxicity above background (++++))
- Cytotoxicity above background, Colon SW1116 [5]: ++++ (4/4 experiments with 15% cytotoxicity above background (++++))
- Cytotoxicity above background, Pancreas BxPC-3 [6]: ++++ (4/4 experiments with 15% cytotoxicity above background (++++))
- Cytotoxicity above background, Breast MB-231 [7]: ++++ (4/4 experiments with 15% cytotoxicity above background (++++))
- Cytotoxicity above background, Breast MCF-7 [8]: ++++ (4/4 experiments with 15% cytotoxicity above background (++++))
- Cytotoxicity above background, Prostate PC-3 [9]: ++++ (4/4 experiments with 15% cytotoxicity above background (++++))
- Cytotoxicity above background, Ovary OVCAR [10]: ++++ (4/4 experiments with 15% cytotoxicity above background (++++))
- Cytotoxicity above background, Colon HT-29 [11]: ++++ (4/4 experiments with 15% cytotoxicity above background (++++))
- Cytotoxicity above background, Colon SW820 [12]: ++++ (4/4 experiments with 15% cytotoxicity above background (++++))
- Cytotoxicity (%) SW1116 Average [13]: 17%

B1: 17-1A: antibody with some specificity for adenocarcinomas, tested in colorectal cancer clinical trials (antibody, chains of the INN, looked up, V domains shown)
VH: QVQLQQSGAELVRPGTSVKVSCKASGYAFTNYLIEWVKQRPGQGLEWIGVINPGSGGTNYNEKFKGKATLTADKSSSTAYMQLSSLTSDDSAVYFCARDGPWFAYWGQGTLVTVSA
VL: NIVMTQSPKSMSMSVGERVTLTCKASENVVTYVSWYQQKPEQSPKLLIYGASNRYTGVPDRFTGSGSATDFTLTISSVQAEDLADYHCGQGYSYPYTFGGGTKLEIK
- clinical response, protocols using additional cyclophosphamide ([14]; 52 patients, with cyclophosphamide): only one complete response and two minor responses among 52 patients
- clinical response, Phase 2 clinical trials ([14]; over 60 patients): only one patient having a partial response
